Source: paper PMC5884648, “Relationship between the agonist activity of synthetic ligands of TRAIL-R2 and their cell surface binding modes” (Oncotarget, 2018)
*1 amine or outer side, *2 acyl side, *3 side chain or, on linkers, in order; H or OH if unused. Where a SMILES comes first, the peptide text is derived from it. Bridges are numbered along the chain shown (N, C = ends). Roman numbers before positions name the chains, in order. X1 = CN(CCCC(=O)NC(CCC(=O)[*:1])CCC(=O)[*:2])C(=O)c1ccccc1-c1c2ccc(=N)c(S(=O)(=O)O)c-2oc2c(S(=O)(=O)O)c(N)ccc12; X2 = NC(CCC(=O)[*:1])CCC(=O)[*:2]

Legend:
Jurkat cells = experiment: Cell viability MTS assay, Jurkat; format: cell-based, human; details: 24 hours
Procedure: (§1) BJAB, Jurkat and HCT116 cells (10^5 cells/well) were cultured in 100 µL of culture medium in 96-flat bottom well plates. The next day, cells were treated with the indicated concentrations of the different TRAILmin/DR5 peptides. After 24 hours of treatment cell viability measurement was performed by the MTS assay according to the manufacturer specification (Promega Corporation, Madison, WI, USA).

BJAB cells = experiment: Cell viability MTS assay, BJAB; format: cell-based, human; details: 24 hours
Procedure: as §1

human TRAIL-R2 = target: T1, human TRAIL-R2 (Homo sapiens, UniProt O14763); experiment: Surface plasmon resonance on sensor-immobilized TRAIL-R2; format: binding; details: for koff / kon: 25° C, Langmuir model
T1 construct: purchased Enzo Life Sciences
Procedure: SPR assays were performed on a Biacore T200™, at 25° C. The running buffer was HBS-EP [10 mM HEPES (pH 7.4) containing 0.15 M NaCl, 3.4 mM EDTA and 0.005% (v/v) Tween P20]. The human TRAIL-R2 (Enzo Life Sciences, Farmingdale, NY, USA) receptor was immobilized on a sCM5 sensor chip (GE Healthcare) using the standard amine coupling procedure. The receptors were diluted in 10 mM acetate buffer (pH 5.0) at a concentration of 5 μg/mL. The TRAIL-R2 immobilization level on the sensor chip was 430 RU. Peptides were injected at a flow rate of 5 μL/min for 120 s and allowed to dissociate for an additional 420 s. Surfaces were then regenerated for 5 s with 25 mM HCl. All binding curves were double-referenced (i.e. subtraction of the data of the empty flow cell followed by the subtraction of the data from a running buffer injection cycle).
(§2) Double-referenced SPR binding curves sets were fitted globally using the BIAevaluation 4.1.1 (GE Healthcare Biacore) or TraceDrawer (Ridgeview Diagnostics AB, Uppsala, Sweden) softwares. The signal recorded with the LigandTracer on an empty spot or slide was subtracted from that recorded on cell-carrying slides. The resulting binding curves were analyzed by kinetic distribution analysis using the tool Interaction Map (Ridgeview Diagnostics AB, Uppsala, Sweden). Interaction Map decomposes the kinetic curve recorded for the binding of a homogeneous ligand to a heterogeneous group of targets into its different components. Results are represented as interaction maps (kon versus koff, log scale), where the color of each populated area represents its degree of contribution to the kinetic curve (red = high contribution, blue = low contribution).

HCT116 cells = experiment: Cell viability MTS assay, HCT116; format: cell-based, human; details: 24 hours
Procedure: as §1

[1] = target: T2, TRAIL-R2 expressed on Jurkat cells (Homo sapiens, UniProt O14763); experiment: LigandTracer real time binding on living Jurkat cells
T2 construct: we used BJAB, HCT116 and Jurkat that express a natural level of TRAIL-R2 receptors; endogenous in cells; host or cells: Jurkat

TRAIL-R2 on HCT116 cells = target: T3, TRAIL-R2 on HCT116 cells (Homo sapiens, UniProt O14763); experiment: Flow cytometry staining with fluorescent peptides, HCT116; format: binding
T3 construct: we used BJAB, HCT116 and Jurkat that express a natural level of TRAIL-R2 receptors; endogenous in cells; host or cells: HCT116
Procedure: (§3) 10^6 cells were washed in PBS containing 2% FCS and then incubated at 4° C for 30 min with an anti-TRAIL-R2 antibody (clone BK9 Diaclone, Besançon, France) according to concentration recommended by the manufacturer or with fluorescent peptides at the concentration of 1 µM. After two washes in PBS-2% FBS, TRAIL-R2 expression was monitored by flow cytometry (Guava easyCyte™, Merck Milipore, Darmstadt, Germany) and data were analyzed with InCyte Software (Merck Milipore).

[2] = target: T4, TRAIL-R2 expressed on HCT116 cells (Homo sapiens, UniProt O14763); experiment: LigandTracer real time binding on living HCT116 cells; details: HCT116 cells expressing TRAIL-R2
T4 construct: we used BJAB, HCT116 and Jurkat that express a natural level of TRAIL-R2 receptors; endogenous in cells; host or cells: HCT116
Procedure: The adherent cells HCT116-TRAIL-R2-DEF and HCT116 cells were directly plated on glass slides (Ø20 mm) (10^6 cells/well). The cells in suspension (BJAB and BJAB-TRAIL-R2-DEF) were covalently adhered to glass slides coated with poly-L-lysine (0.1% v/v) (Sigma Aldrich, Saint Louis, MO, USA). The adhesion was strong enough for measurement during 10h. After 24 hours, the slides were fixed with superglue at different locations of a Petri dish, which was inserted in the LigandTracer Green instrument (Ridgeview Instrument AB, Uppsala, Sweden). An empty spot or empty glass slide fixed to the Petri dish was used to record the background signal. This set-up allowed the simultaneous monitoring of the binding of a given peptide to different cell-carrying glass slides fixed to the dish. […] The fluorescence signal is recorded over time when the slide is out of the solution, and therefore corresponds to the amount of bound peptide. […]
Double-referenced SPR binding curves sets were fitted globally using the BIAevaluation 4.1.1 (GE Healthcare Biacore) or TraceDrawer (Ridgeview Diagnostics AB, Uppsala, Sweden) softwares. The signal recorded with the LigandTracer on an empty spot or slide was subtracted from that recorded on cell-carrying slides. The resulting binding curves were analyzed by kinetic distribution analysis using the tool Interaction Map (Ridgeview Diagnostics AB, Uppsala, Sweden). […]

TRAIL-R2 on BJAB cells = target: T5, TRAIL-R2 on BJAB cells (Homo sapiens, UniProt O14763); experiment: Flow cytometry staining with fluorescent peptides, BJAB; format: binding
T5 construct: expressed in transfected cells
Procedure: as §3

[3] = target: TRAIL-R2 expressed on BJAB cells (Homo sapiens, UniProt O14763); experiment: LigandTracer real time binding on living BJAB cells; design: expressed in transfected cells
Procedure: The adherent cells HCT116-TRAIL-R2-DEF and HCT116 cells were directly plated on glass slides (Ø20 mm) (10^6 cells/well). The cells in suspension (BJAB and BJAB-TRAIL-R2-DEF) were covalently adhered to glass slides coated with poly-L-lysine (0.1% v/v) (Sigma Aldrich, Saint Louis, MO, USA). The adhesion was strong enough for measurement during 10h. After 24 hours, the slides were fixed with superglue at different locations of a Petri dish, which was inserted in the LigandTracer Green instrument (Ridgeview Instrument AB, Uppsala, Sweden). An empty spot or empty glass slide fixed to the Petri dish was used to record the background signal. This set-up allowed the simultaneous monitoring of the binding of a given peptide to different cell-carrying glass slides fixed to the dish. Three mL of solution (culture medium without or with fluorescent peptide) were added to the dish. In the LigandTracer instrument, the dish is tilted and rotates. Consequently the 3 mL solution covers only the lower part of the dish and each cell-carrying slide is alternatively in contact and out of contact with the solution (at intervals of 8 to 16 s). The fluorescence signal is recorded over time when the slide is out of the solution, and therefore corresponds to the amount of bound peptide. The solution in the dish was initially the culture medium (∼30 min) to provide a stable base line. The fluorescent peptide was then added in increasing doses (10, 30 and 90 nM) every two to three hours. Finally the peptide-containing sample was replaced with fresh medium and the dissociation of the peptide from the cells was followed overnight. The measurements were conducted at room temperature (approximately 20° C).
as §2

T1 sequence (O14763 56-440): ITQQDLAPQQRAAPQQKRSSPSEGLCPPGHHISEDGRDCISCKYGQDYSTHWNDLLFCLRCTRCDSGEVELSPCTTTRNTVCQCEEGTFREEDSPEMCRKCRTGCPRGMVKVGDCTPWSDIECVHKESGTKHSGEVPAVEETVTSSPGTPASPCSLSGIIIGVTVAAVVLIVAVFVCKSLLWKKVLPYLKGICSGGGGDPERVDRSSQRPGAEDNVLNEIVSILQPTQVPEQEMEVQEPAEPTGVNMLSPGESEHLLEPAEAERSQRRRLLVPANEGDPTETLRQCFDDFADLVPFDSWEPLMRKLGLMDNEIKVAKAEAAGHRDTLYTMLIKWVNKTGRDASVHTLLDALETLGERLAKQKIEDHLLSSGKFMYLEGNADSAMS
Sequence of TRAIL-R2 expressed on BJAB cells (O14763 56-440): as above
T3 sequence (O14763 56-440): as above
T5 sequence (O14763 56-440): as above
T4 sequence (O14763 56-440): as above
T2 sequence (O14763 56-440): as above

Structure (SMILES)	apoptosis induction in Jurkat cells (Jurkat cells)	apoptosis induction in BJAB cells (BJAB cells)	koff (human TRAIL-R2; SPR) [s⁻¹]	kon (human TRAIL-R2; SPR) [M⁻¹ s⁻¹]	KD of 2d smaller than KD of 1d (human TRAIL-R2; SPR, ratio of KD 1d to 2d)	Rmax (human TRAIL-R2; TRAIL-R2 surface 1, one:one interaction model)	Rmax (human TRAIL-R2; TRAIL-R2 surface 2, one:one interaction model)	apoptosis induction in HCT116 cells (HCT116 cells)	cell surface binding [1]	binding by flow cytometry (TRAIL-R2 on HCT116 cells; HCT116 cells deficient for TRAIL-R2, peptide 1 µM)	binding by flow cytometry (TRAIL-R2 on HCT116 cells; HCT116 cells expressing TRAIL-R2, peptide 1 µM)	cell surface binding [2]	binding by flow cytometry (TRAIL-R2 on BJAB cells; BJAB cells deficient for TRAIL-R2, peptide 1 µM)	binding by flow cytometry (TRAIL-R2 on BJAB cells; BJAB cells expressing TRAIL-R2, peptide 1 µM)	cell surface binding ([3]; BJAB cells deficient for TRAIL-R2)	cell surface binding ([3]; BJAB cells expressing TRAIL-R2)	fluorescent signal reached ([3]; BJAB cells that expressed TRAIL-R2, 10, 30 and (f1d) 90 nM)
CC[C@H](C)[C@@H]1NC(=O)[C@H](CCCNC(=N)N)NC(=O)[C@H](CC(N)=O)NC(=O)[C@H](CC(=O)O)NC(=O)[C@H](CC(C)C)NC(=O)[C@@H](NC(=O)[C@H](CC(=O)O)NC(=O)[C@H](Cc2c[nH]c3ccccc23)NC(C)=O)CSSC[C@@H](C(=O)N[C@H](C(=O)N[C@@H](CCCNC(=N)N)C(=O)N[C@@H](CC(C)C)C(N)=O)C(C)C)NC(=O)[C@H](CCC(N)=O)NC(=O)[C@H](CCCNC(=N)N)NC(=O)[C@H](CCCCNC(=O)CCC(N)CCC(=O)NCCCC[C@@H]2NC(=O)CNC(=O)[C@H]([C@@H](C)CC)NC(=O)[C@H](CCCNC(=N)N)NC(=O)[C@H](CC(N)=O)NC(=O)[C@H](CC(=O)O)NC(=O)[C@H](CC(C)C)NC(=O)[C@@H](NC(=O)[C@H](CC(=O)O)NC(=O)[C@H](Cc3c[nH]c4ccccc34)NC(C)=O)CSSC[C@@H](C(=O)N[C@H](C(=O)N[C@@H](CCCNC(=N)N)C(=O)N[C@@H](CC(C)C)C(N)=O)C(C)C)NC(=O)[C@H](CCC(N)=O)NC(=O)[C@H](CCCNC(=N)N)NC2=O)NC(=O)CNC1=O (stereo partly drawn) [2d] (I: Ac-WDCLDNRIGKRQCVRL-NH2 / II: Ac-WDCLDNRIGKRQCVRL-NH2; disulfide I:3-I:13, II:3-II:13; linker I:10-II:10 via X2; N-terminus and C-terminus assumed)	strong resistance	underwent apoptosis	0.00018	1.5e+06	approximately 400 fold	33	12	strong resistance									
CC[C@H](C)[C@@H]1NC(=O)[C@H](CCCNC(=N)N)NC(=O)[C@H](CC(N)=O)NC(=O)[C@H](CC(=O)O)NC(=O)[C@H](CC(C)C)NC(=O)[C@@H](NC(=O)[C@H](CC(=O)O)NC(=O)[C@H](Cc2c[nH]c3ccccc23)NC(C)=O)CSSC[C@@H](C(=O)N[C@H](C(=O)N[C@@H](CCCNC(=N)N)C(=O)N[C@@H](CC(C)C)C(N)=O)C(C)C)NC(=O)[C@H](CCC(N)=O)NC(=O)[C@H](CCCNC(=N)N)NC(=O)[C@H](CCCCNC(=O)CCC(CCC(=O)NCCCC[C@@H]2NC(=O)CNC(=O)[C@H]([C@@H](C)CC)NC(=O)[C@H](CCCNC(=N)N)NC(=O)[C@H](CC(N)=O)NC(=O)[C@H](CC(=O)O)NC(=O)[C@H](CC(C)C)NC(=O)[C@@H](NC(=O)[C@H](CC(=O)O)NC(=O)[C@H](Cc3c[nH]c4ccccc34)NC(C)=O)CSSC[C@@H](C(=O)N[C@H](C(=O)N[C@@H](CCCNC(=N)N)C(=O)N[C@@H](CC(C)C)C(N)=O)C(C)C)NC(=O)[C@H](CCC(N)=O)NC(=O)[C@H](CCCNC(=N)N)NC2=O)NC(=O)CCCN(C)C(=O)c2ccccc2-c2c3ccc(=N)c(S(=O)(=O)O)c-3oc3c(S(=O)(=O)O)c(N)ccc23)NC(=O)CNC1=O (stereo partly drawn) [f2d] (I: Ac-WDCLDNRIGKRQCVRL-NH2 / II: Ac-WDCLDNRIGKRQCVRL-NH2; disulfide I:3-I:13, II:3-II:13; linker I:10-II:10 via X1; N-terminus and C-terminus assumed)		induced apoptosis	0.00026	150000				scarcely induced their apoptosis	weak binding signal, if any	not	bound	bound weakly	not	bound	weak signals	strong binding	> 25
